In ChEMBL document CHEMBL3046306, “Synthesis of new compounds derived from metronidazole and amino acids and their esters as antiparasitic agents” (Med Chem Res, 2012) one finds MNTC and IC50 data, which are given here for twelve molecules.

Series [1] is described as follows: Cytotoxicity against Chlorocebus aethiops (African green monkey) Vero cells assessed as concentration at which cell growth as in negative control after 48 hr by hemocytometer. It is filed as cell-based. Particulars: chlorocebus sabaeus, read-out: Activity.
The nature of series [2]: Cytotoxicity against Homo sapiens (human) Hep2 cells assessed as concentration at which cell growth as in negative control after 48 hr by hemocytometer. The series is classed as cell-based. Particulars: HEp-2 cells, read-out: Activity.
Another series relates to Entamoeba histolytica. Description: Antiparasitic activity against Entamoeba histolytica HK-9 strain ATCC 30015 using trypan blue staining by hemocytometer. The series is classed as functional, organism-based.
Another series relates to Giardia intestinalis. Briefly: Antiparasitic activity against Giardia intestinalis WB strain ATCC 30957 using trypan blue staining by hemocytometer. It is filed as functional, organism-based. Conditions: Giardia duodenalis.

One may read the IC50 as the concentration needed to halve the response being measured. Higher therefore signals a need for much substance. Consider `COC(=O)[C@H](CC(=O)O)NC(=O)Cn1c([N+](=O)[O-])cnc1C`, for which the results for the MNTC at 48 h in series [1] and in series [2] were 314 µM and 304 µM, respectively. In addition, the IC50 in the series on Entamoeba histolytica worked out at 2.21 µM; in the series on Giardia intestinalis, 2.26 µM.
Turning to `COC(=O)[C@H](Cc1ccc(O)cc1)NC(=O)Cn1c([N+](=O)[O-])cnc1C`, the figures for the IC50 with Entamoeba histolytica and in the series on Giardia intestinalis were 18.3 µM and 17.8 µM, respectively.
As to `COC(=O)[C@H](Cc1c[nH]c2ccccc12)NC(=O)Cn1c([N+](=O)[O-])cnc1C`, the half-inhibitory concentration (IC50) stood at 8.29 µM in the series with Entamoeba histolytica and 16.6 µM in the series on Giardia intestinalis.
For the molecule `COC(=O)[C@H](Cc1cnc[nH]1)NC(=O)Cn1c([N+](=O)[O-])cnc1C`, the values for the IC50 in the series with Entamoeba histolytica and with Giardia intestinalis were 8.91 µM and 8.93 µM, respectively.
As for `COC(=O)[C@@H]1CCCN1C(=O)Cn1c([N+](=O)[O-])cnc1C`, the MNTC at 48 h stood at 204 µM in series [1] and 169 µM in series [2]. The IC50 worked out at 2.54 µM in the series with Entamoeba histolytica and 2.7 µM with Giardia intestinalis.
`CCOC(=O)C(CCCCNC(=O)Cn1c([N+](=O)[O-])cnc1C)NC(=O)Cn1c([N+](=O)[O-])cnc1C` (configuration not stated): the 50% inhibitory concentration (IC50) with Entamoeba histolytica worked out at 3.95 µM; in the series on Giardia intestinalis, 3.84 µM.
`Cc1ncc([N+](=O)[O-])n1CC(=O)N[C@@H](Cc1ccccc1)C(=O)O`: the half-inhibitory concentration (IC50) stood at 23.4 µM in the series on Entamoeba histolytica and 22.2 µM in the series with Giardia intestinalis.
Turning to `Cc1ncc([N+](=O)[O-])n1CC(=O)N[C@@H](Cc1c[nH]c2ccccc12)C(=O)O`, the values for the IC50 in the series with Entamoeba histolytica and in the series on Giardia intestinalis were 17.2 µM and 18 µM, respectively.
As to `Cc1ncc([N+](=O)[O-])n1CC(=O)N[C@@H](Cc1cnc[nH]1)C(=O)O`, the IC50 with Entamoeba histolytica stood at 16.2 µM; in the series with Giardia intestinalis, 17.2 µM.
Regarding `CCOC(=O)[C@H](C)NC(=O)Cn1c([N+](=O)[O-])cnc1C`, the MNTC at 48 h worked out at 72.2 µM in series [1] and 69.7 µM in series [2]. Further, the figures for the IC50 in the series on Entamoeba histolytica and in the series with Giardia intestinalis were 2.1 µM and 2.18 µM, respectively.
As for `COC(=O)[C@H](Cc1ccccc1)NC(=O)Cn1c([N+](=O)[O-])cnc1C`, the IC50 with Entamoeba histolytica was 22.1 µM; with Giardia intestinalis, 44.4 µM.
As for `Cc1ncc([N+](=O)[O-])n1CCO` [METRONIDAZOLE], the MNTC at 48 h in series [1] is 903 µM; in series [2], 869 µM. In addition, the concentration for half-maximal inhibition (IC50) is 4.4 µM in the series with Entamoeba histolytica and 5.17 µM with Giardia intestinalis.
